{
  "source": "patent US12569557B2",
  "about": "“Targeting moDC to enhance vaccine efficacy on mucosal surface” (UNIVERSITY OF FLORIDA RESEARCH FOUNDATION, INCORPORATED, priority 2018, dated 2026)",
  "key": {"lung DCs": {"tested_on": "lung DCs", "test": "Lung DC / alveolar macrophage maturation (CD86, CCR7) after intranasal CDG, flow cytometry", "format": "in vivo, mice"}, "moDCs": {"tested_on": "moDCs", "test": "Antigen presentation by lung moDCs after intranasal CDG and Eα-OVA (YAE mAb)", "format": "in vivo, C57BL/6 mice", "settings": "CDG and Eα-OVA i.n.", "description": "How does non-migratory moDCs (FIGS. 1D & 12B)^25,33 promote CDG-induced antibody responses? moDCs were efficient at antigen processing (FIG. 8D). We first asked if they presented antigen on cell surface. We intranasally administered C57BL/6 mice with CDG and Eα-OVA, and detected I-A^b/Eα^+ cells with the YAE mAb. Indeed, CDG increased YAE^+ moDCs in vivo (FIG. 9A)."}, "RelA, RelB, TBK1": {"tested_on": "RelA, RelB, TBK1", "test": "pRelA, pRelB and p-TBK1 in lung DC subsets after intranasal CDG, flow cytometry", "format": "in vivo, mice"}, "lung TNF [1]": {"tested_on": "lung TNF", "test": "Detection of lung cytokine production after intranasal CDG (ELISA of lung homogenates)", "format": "in vivo, mice", "method": "Mice were intranasally administered 5 μg CDG, then sacrificed after 5 hrs by C02 asphyxiation^17. Lungs were perfused with cold PBS. The harvested lungs were washed with PBS once, then stored in 0.7 ml Tissue protein extraction reagent (T-PER) (Thermo Scientific, cat #78510) containing protease inhibitors (Roche, cat #11836153001) at −80° C. Later, the lung was thawed on ice and homogenized with Minilys® (Precellys, 5,000 RPM for 30 sec) using Precellys lysing kit (Precellys, cat #KT03961). Lung homogenates were transferred to a 1.5 ml tube and spun at 14,000 g for 30 min at 4° C. The supernatant was collected and analyzed for TNF production by ELISA (eBioscience, cat #88-7324)."}, "[2]": {"tested_on": "PspA-specific Th1, Th2, Th17 responses", "test": "Ex vivo recall of PspA-specific Th responses in lung cells and splenocytes of immunized mice", "settings": "immunized IRF4fl/flCD11ccre mice", "method": "(§1) Groups of mice (4 per group) were intranasally vaccinated with CDG (5 μg, Invivogen, cat #vac-cdg) adjuvanted PspA (2 μg, BEI Resources) or PspA alone^17. Mice were immunized twice at 14 days interval. For intranasal vaccination, animals were anesthetized using isoflurane in an E-Z Anesthesia system (Euthanex Corp, Palmer, Pa.). PspA, with or without CDG was administered in 20 μl saline. Sera were collected 14 days after the last immunization. The PspA-specific Abs were determined by ELISA. Secondary Abs used were anti-mouse IgG1-HRP (Southern Biotech, cat #1070-05), anti-mouse IgG2C-HRP (Southern Biotech, cat #1079-05), and anti-mouse IgA-HRP (Southern Biotech, cat #1040-05). To determine Ag-specific Th response, splenocytes from PspA or CDG+PspA immunized mice were stimulated with 5 μg/ml PspA for four days in culture. Th1, Th2, and Th17 cytokines were measured in the supernatant by ELISA."}, "[3]": {"tested_on": "H5N1 influenza, Acinetobacter baumannii, Staphylococcus aureus, Klebsiella pneumoniae and Streptococcus pneumoniae", "settings": "cited from earlier work"}, "mTNF": {"tested_on": "mTNF", "test": "Cell surface mTNF expression on lung DCs detected with TNFR2-Fc recombinant protein", "format": "in vivo", "settings": "WT mice, i.n. CDG 16 hours", "method": "We intranasally administered CDG to WT mice for 16 hours and detected cell surface mTNF expression using […] recombinant protein (FIG. 8A).\nThe following Abs from Biolegend were used in the flow cytometry: CD80 (16-10A1), CD86 (GL1), CD11B (M1/70), CD11C (N418), FcεRIa (MAR-1), MHC II (M5/114.15.2), CD103(2E7), CD24 (m1/69), CD64 (x54-5/7.1), CCR7 (4B12), TNF (MP6-XT22), TNFR2 (TR75-89), PD-L1 (10F.9G2), BTLA (8F4), PD-L2 (TY25), CD301b (URA-1), CX3CR1 (SA011F11), CD172a (P84), CD44 (IM7). The following Abs were from Cell Signaling: p-TBK1 (ser172, d52c2), p-RelB (ser552, d41b9), p-RelA (ser536, cat #4887S). The following reagents were from Sino Biological: TNFR2 Ab (cat #50128-R112-A), TNFR2-Fc (mouse TNFR2 extracellular domain, Met 1-Gly 258, was fused with the Fc region of human IgG1 at the C-terminus, cat #50128-M02H), human IgG1 Fc (cat #10702-HNAH). Alexa Fluor®488 mouse anti-human IgG1 Fc was from Invitrogen (cat #A-10631). FITC-CDG (2′-Fluo-AHC-CDG) was from Biolog (cat #F009). Cell sorting was performed on the BD FACSAriaIII Flow Cytometer and Cell Sorter. After sorting, dendritic cells were CFSE labeled, according to the protocol from the manufacturer (Invitrogen)."}, "anti-PspA IgG and IgA": {"tested_on": "anti-PspA IgG and IgA", "test": "Intranasal CDG/PspA immunization: PspA-specific antibodies in serum and BALF by ELISA", "format": "in vivo, mice", "method": "as §1"}, "[4]": {"settings": "cited from earlier work"}, "lung TNF [5]": {"tested_on": "lung TNF", "settings": "administered intranasally; cited from earlier work"}, "TNFR2": {"tested_on": "TNFR2", "format": "in vivo, mice"}},
  "note": "Entries after “also recorded” stand apart in the source; their conditions may differ.",
  "data": [
    {"molecule": "Nc1nc2c(ncn2[C@@H]2O[C@@H]3COP(=O)(O)O[C@H]4[C@@H](O)[C@H](n5cnc6c(=O)[nH]c(N)nc65)O[C@@H]4COP(=O)(O)O[C@H]3[C@H]2O)c(=O)[nH]1", "note": "[CDG, cyclic di-GMP]", "values": [
      {"measurement": "CD86 on lung moDCs", "setting": "lung DCs; Batf3−/− mice", "result": "unaltered"},
      {"measurement": "CD86 on lung moDCs", "setting": "lung DCs; IRF4fl/flCD11ccre mice", "result": "failed to upregulate CD86"},
      {"measurement": "Activation of lung DCs (CD86)", "setting": "lung DCs; MPYSfl/flLysMcre mice", "result": "unaltered"},
      {"measurement": "CD86 expression on moDCs", "setting": "lung DCs; MPYSfl/flLysMcre mice", "result": "normal levels of CD86 expression"},
      {"measurement": "CD86 on lung cDC1", "setting": "lung DCs; RelBfl/flCD11ccre mice", "result": "upregulated CD86"},
      {"measurement": "CD86 on lung cDC2", "setting": "lung DCs; RelBfl/flCD11ccre mice", "result": "failed to upregulate CD86"},
      {"measurement": "CD86 on lung moDCs", "setting": "lung DCs; RelBfl/flCD11ccre mice", "result": "induced"},
      {"measurement": "CD86 and CCR7 expression on cDC1", "setting": "lung DCs; TNFR2−/− mice", "result": "induced"},
      {"measurement": "CD86 on lung moDCs", "setting": "lung DCs; TNFR2−/− mice", "result": "did not upregulate CD86"},
      {"measurement": "CD86 or CCR7 expression in lung cDC2", "setting": "lung DCs; TNFR2−/− mice", "result": "did not enhance"},
      {"measurement": "CD86 expression on alveolar macrophages", "setting": "lung DCs; WT mice, CDG treatment i.n.", "result": "did not increase expression of CD86"},
      {"measurement": "CCR7 expression on lung moDCs", "setting": "lung DCs; WT mice, i.n. CDG", "result": "did not increase CCR7"},
      {"measurement": "CD86 and CCR7 expression in lung cDC1 and cDC2", "setting": "lung DCs; WT mice, i.n. CDG", "result": "increased"},
      {"measurement": "CD86 expression on lung moDCs", "setting": "lung DCs; WT mice, i.n. CDG", "result": "increased expression of CD86"},
      {"measurement": "Migration of activated moDCs to lung draining lymph nodes", "setting": "lung DCs; WT mice, i.n. CDG", "result": "did not migrate to dLNs"},
      {"measurement": "YAE+ moDCs (I-Ab/Eα presentation)", "setting": "moDCs", "result": "increased"},
      {"measurement": "TBK1 activation (p-TBK1) in cDC2", "setting": "RelA, RelB, TBK1; TNFR2−/− mice", "result": "activated"},
      {"measurement": "RelA activation in lung cDC1", "setting": "RelA, RelB, TBK1; i.n. CDG", "result": "activated RelA"},
      {"measurement": "RelA and RelB activation in lung moDCs", "setting": "RelA, RelB, TBK1; i.n. CDG", "result": "activated both RelA and RelB"},
      {"measurement": "RelB activation in lung cDC2", "setting": "RelA, RelB, TBK1; i.n. CDG", "result": "activated RelB; also recorded: further activate RelB"},
      {"measurement": "CDG-induced lung MCP-1 production", "setting": "lung TNF [1]; Batf3−/− mice (lack cDC1)", "result": "largely absent"},
      {"measurement": "CDG-induced lung production of TNF, IL-1β and IL-12p70", "setting": "lung TNF [1]; IRF4fl/flCD11ccre mice (lack cDC2)", "result": "dramatically reduced"},
      {"measurement": "CDG-induced lung TNF production", "setting": "lung TNF [1]; TBK1fl/flVavCre mice", "result": "dramatically reduced"},
      {"measurement": "Lung TNF", "setting": "lung TNF [1]; TNFR2−/− mice", "result": "induced"},
      {"measurement": "PspA-specific Th1, Th2, Th17 responses, ex vivo recall in lung cells and splenocytes", "setting": "[2]", "result": "did not show PspA-specific Th1, Th2 or Th17 responses"},
      {"measurement": "Adjuvant activity / response in MPYS−/− mice", "setting": "[3]; MPYS−/− mice", "result": "do not respond"},
      {"measurement": "Cancer vaccine adjuvant activity", "setting": "[3]; animal models", "result": "showed cancer vaccine adjuvant activity"},
      {"measurement": "Activation of Th1 and Th2 immune response vs LPS, CpG ODN or aluminum salt based adjuvant", "setting": "[3]; mice", "result": "more potent activator"},
      {"measurement": "mTNF expression on TNFR2+ cDC2", "setting": "mTNF", "result": "expressed little mTNF"},
      {"measurement": "mTNF expression on TNFR2− cDC2", "setting": "mTNF", "result": "main mTNF^+ cDC2 cells"},
      {"measurement": "Anti-PspA Abs in BALF and serum", "setting": "anti-PspA IgG and IgA; IRF4fl/flCD11ccre mice, PspA with CDG i.n.", "result": "did not induce"},
      {"measurement": "Humoral and cellular immune responses", "setting": "anti-PspA IgG and IgA; TNFR1−/− mice", "result": "reduced humoral and cellular immune responses"},
      {"measurement": "Adjuvant activity (humoral and cellular responses)", "setting": "anti-PspA IgG and IgA; TNFR2−/− mice", "result": "completely lost its adjuvant activity"},
      {"measurement": "Over-inflammatory responses in the lung", "setting": "[4]; intranasal adjuvant", "result": "does not induce over-inflammatory responses"},
      {"measurement": "Acute toxicity as a mucosal adjuvant", "setting": "[4]; mice", "result": "does not cause acute toxicity"},
      {"measurement": "Lung production of TNF, IL-1β and IL-10", "setting": "lung TNF [5]", "result": "induced"},
      {"measurement": "TNFR2 expression on moDCs", "setting": "TNFR2; WT mice", "result": "induced"},
      {"measurement": "TNFR2 expression on lung cDC1", "setting": "TNFR2; WT mice, i.n. CDG 16 hrs", "result": "dramatically increased"},
      {"measurement": "PD-L1 expression on transferred TNFR2+ and TNFR2− cDC2", "setting": "TNFR2; cDC2 subsets transferred into MPYS−/− mice, CDG i.n. 16 hrs", "result": "did not affect"}
    ]}
  ]
}
